In one data set the test system is obesity patients. The conditions noted are these: Munro, cited from earlier work.
Data set [1] has as its system overweight (7) and obese (16) patients. The data set can be described thus: study of customized weekly dose patterns of moderate and low dose phentermine capsules. In kind it is in vivo, human. How it is done: A study was performed including 23 overweight (7) and obese (16) patients whose average initial weight was 207 lb. Inclusion and exclusion criteria were similar to those of many published phentermine clinical trials. The patients were offered conventional dietary advice, provided meal replacements in the form of one to two commercial shakes (Usana Health Sciences, Salt Lake City, Utah), and were encouraged to exercise. Historical controls available from many published data about weight loss that involved dietary advice, meal replacement, and encouragement to exercise were used.
During the study, each patient was prescribed a customized dose pattern level of moderate capsules of phentermine and low dose capsules of phentermine that were provided on a biweekly basis in a 7-compartment blister pack where each blister contained a daily red capsule. The patient was instructed to take the appropriate daily capsule in the morning around breakfast time. The pack was labeled “each capsule contains up to 35 mg of phentermine.” In this example, each capsule contained 35 mg, 15 mg, 10 mg, 7.5 mg or 0 mg of phentermine in addition to inert excipients. The patients received two dose pattern weekly medications strips every two weeks.
In addition to the pills, patients were given a smartphone app or access to a browser-based reporting form where they could report their daily weight, drug compliance, hunger level, exercise level, and side effects experienced. The data was fed directly to a database, which was analyzed by the physician administering the trial and their assistant.
The algorithm for treatment included the following steps:
(1) Each patient was started on a weight loss dose pattern with a midlevel weekly phentermine dose pattern level 2 as shown in FIG. 2. […]
(2) The maximum tolerated weight loss dose pattern for the patient was determined by reviewing the patient's current dose level pattern and his or her electronically reported daily hunger level and side effects such as sleeplessness. […]

In the next data set the test system is patients. The data set can be described thus: pooled previously published phentermine clinical trials (FIG. 1A). In kind it is in vivo, human. Conditions: dropouts included as having lost no net weight. An excerpt:
Studies using phentermine alone or phentermine mixed with a placebo have reported significant patient dropout rates in a typical 8-12 weeks phentermine clinical trial (Lucey et al “Chlorphentermine, A New ‘Appetite Suppressant,’ A Cross-Over Double-Blind Trial,” Ulster Med. J., 1962, pages 181-184 reports a 66% dropout rate, Kim et al., “Effects on Weight Reduction and Safety of Short-Term Phentermine Administration in Korean Obese People,” Yonsei Med J., 2006 Vol. 47, No. 5, pages 614-625 reports a 47% dropout rate, Truant reports a 66% dropout rate, Munro reports a 41% dropout rate, and Langlois et al., “A Double-Blind Clinical Evaluation of the Safety and Efficacy of Phentermine Hydrochloride (Fastin) in the Treatment of Exogenous Obesity,” Curr Ther Res Clin Exp., 1974, Vol. 16, No. 4, pages 289-296 reports a 41% dropout rate). For broad clinical adoption, the intent to treat weight loss, e.g., the average weight loss of all the patients that were enrolled in the study, is the key measure.
FIG. 1A is a table showing the results of various previously published clinical trials using phentermine.

Data set [2] has as its system patients in medical weight reduction. Conditions: Truant, cited from earlier work.

Read-outs that look alike come from different tables or passages of the source.

Consider `CC(C)(N)Cc1ccccc1` [phentermine, α-dimethyl-β-phenylethylamine], for which, in the data set with obesity patients (12-week treatment with weeks 4 through 8 on placebo versus phentermine for all 12 weeks), the “average weight loss, intermittent versus continuous” value is “lost as much weigh on average”. The weight loss in the data set on obesity patients (alternating monthly placebo/active trial, twelve weeks) is 15 lbs. In addition, the “patients failing to complete the first 12 weeks in the program” value in data set [1] (first 12 weeks, indicates tolerability of the regimen) is recorded as “None of the patients failed to complete the first 12 weeks”. In addition, the “average twelve-week weight loss” value in data set [1] (hunger and weight responsive patient-specific regimen, 12 weeks, intent to treat basis) was 23 lb. Also, the “reported side effects rate” value in data set [1] (once the initial dose was titrated) is “Lower reported side effects rate”. Also, the “intent to treat weight loss” value in the data set with patients stood at 9.0 lb. The weight lost in data set [2] (phentermine for twelve weeks except placebo on weeks 4, 8, and 12) is recorded as 16.6 lb; in data set [2] (phentermine for twelve weeks), 18.8 lb.
